Results published in publication PMC8147998, “Apigenin and Structurally Related Flavonoids Allosterically Potentiate the Function of Human α7-Nicotinic Acetylcholine Receptors Expressed in SH-EP1 Cells” (Cells, 2021).
Like-named read-outs stand apart in the source and are kept apart here.

Target: T1, α7 human nicotinic acetylcholine receptor (α7 nACh receptor) (Homo sapiens, UniProt P36544)
T1 construct: gene CHRNA7; homomeric receptor stably expressed in SH-EP1 cells
Experiment: Fluo-4 Ca2+ transient potentiation in SH-EP1 cells ([…] ACh); no change in […]-α-bungarotoxin binding
Type: cell-based

[1] = SH-EP1, read-out: % potentiation at 10 μM

T1 sequence (P36544 23-502): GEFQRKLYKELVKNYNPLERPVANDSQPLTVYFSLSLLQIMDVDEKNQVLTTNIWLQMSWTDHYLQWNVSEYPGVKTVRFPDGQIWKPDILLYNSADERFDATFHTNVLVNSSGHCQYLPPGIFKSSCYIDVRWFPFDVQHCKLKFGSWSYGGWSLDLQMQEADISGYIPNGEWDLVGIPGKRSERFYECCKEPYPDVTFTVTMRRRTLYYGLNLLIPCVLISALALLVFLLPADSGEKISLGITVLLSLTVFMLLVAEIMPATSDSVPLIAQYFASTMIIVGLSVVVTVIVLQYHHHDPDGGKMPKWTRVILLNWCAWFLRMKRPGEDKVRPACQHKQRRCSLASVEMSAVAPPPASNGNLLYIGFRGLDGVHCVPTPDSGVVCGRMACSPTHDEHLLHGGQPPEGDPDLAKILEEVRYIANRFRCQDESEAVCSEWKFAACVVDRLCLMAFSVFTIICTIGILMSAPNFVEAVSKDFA

SMILES	activation at 10 µM [1]	activation at 10 µM (SH-EP1; read-out: % potentiation at 10 μM)
O=c1cc(-c2ccc(O)cc2)oc2cc(O)cc(O)c12 [apigenin]	48%	–
O=c1c(-c2ccc(O)cc2)coc2cc(O)cc(O)c12 [genistein]	83%	–
O=c1c(O)c(-c2ccc(O)c(O)c2)oc2c(O)c(O)cc(O)c12 [gossypetin]	65%	–
O=c1c(O)c(-c2ccc(O)cc2)oc2cc(O)cc(O)c12 [kaempferol]	81%	–
O=c1cc(-c2ccc(O)c(O)c2)oc2cc(O)cc(O)c12 [luteolin]	72%	–
O=C(CCc1ccc(O)cc1)c1c(O)cc(O)cc1O [phloretin]	112%	–
O=c1c(O)c(-c2ccc(O)c(O)c2)oc2cc(O)cc(O)c12 [quercetin]	–	73%
